Read-outs that look alike come from different tables or passages of the source.
Assays:
K-562 = test: Inhibition of cells growth by colorimetric (SRB) assay, K-562; details: for GI50 / CC50: Homo sapiens, K562, 48 h; for GI50: read-out: K-562 GI50, SRB assay, 48 hours exposure; for CC50: read-out: K-562 LC50, SRB assay, 48 hours exposure; for K-562 TGI: SRB assay, 48 hours exposure
Summary of the method: (§1)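 Read-out is sulforhodamine B protein stain (OD 490 nm) after cold TCA fixation, following 48 h continuous exposure to samples spanning 10 to 10^−8 μg/ml.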

A-549 = test: Inhibition of cells growth by colorimetric (SRB) assay, A-549
Summary of the method: as §1

SK-MEL-28 = test: Inhibition of cells growth by colorimetric (SRB) assay, SK-MEL-28; details: for GI50 / CC50: Homo sapiens, SK-MEL-28, 48 h; for GI50: read-out: MEL-28 GI50, SRB assay, 48 hours exposure; for CC50: read-out: MEL-28 LC50, SRB assay, 48 hours exposure; for MEL-28 TGI: SRB assay, 48 hours exposure
Summary of the method: as §1

HT-29 = test: Inhibition of cells growth by colorimetric (SRB) assay, HT-29
Summary of the method: as §1

LoVo = test: Inhibition of cells growth by colorimetric (SRB) assay, LoVo; details: for GI50 / CC50: Homo sapiens, LoVo, 48 h; for GI50: read-out: LOVO GI50, SRB assay, 48 hours exposure; for CC50: read-out: LOVO LC50, SRB assay, 48 hours exposure; for LOVO TGI: SRB assay, 48 hours exposure
Summary of the method: as §1

LoVo-Dox = test: Inhibition of cells growth by colorimetric (SRB) assay, LoVo-Dox; details: for GI50 / CC50: Homo sapiens, 48 h; for GI50: read-out: LOVO-DOX GI50, SRB assay, 48 hours exposure; for CC50: read-out: LOVO-DOX LC50, SRB assay, 48 hours exposure; for LOVO-DOX TGI: SRB assay, 48 hours exposure
Summary of the method: as §1

DU-145 = test: Inhibition of cells growth by colorimetric (SRB) assay, DU-145; details: for GI50 / CC50: Homo sapiens, DU-145, 48 h; for GI50: read-out: DU-145 GI50, SRB assay, 48 hours exposure; for CC50: read-out: DU-145 LC50, SRB assay, 48 hours exposure; for DU-145 TGI: SRB assay, 48 hours exposure
Summary of the method: as §1

LNCaP = test: Inhibition of cells growth by colorimetric (SRB) assay, LNCaP; details: for GI50 / CC50: Homo sapiens, LNCaP, 48 h; for GI50: read-out: LN-caP GI50, SRB assay, 48 hours exposure; for CC50: read-out: LN-caP LC50, SRB assay, 48 hours exposure; for LN-caP TGI: SRB assay, 48 hours exposure
Summary of the method: as §1

SK-BR-3 = test: Inhibition of cells growth by colorimetric (SRB) assay, SK-BR-3; details: for GI50 / CC50: Homo sapiens, SK-BR-3, 48 h; for GI50: read-out: SK-BR-3 GI50, SRB assay, 48 hours exposure; for CC50: read-out: SK-BR-3 LC50, SRB assay, 48 hours exposure; for SK-BR-3 TGI: SRB assay, 48 hours exposure
Summary of the method: as §1

IGROV-1 = test: Inhibition of cells growth by colorimetric (SRB) assay, IGROV-1; details: for GI50 / CC50: Homo sapiens, IGROV-1, 48 h; for GI50: read-out: IGROV GI50, SRB assay, 48 hours exposure; for CC50: read-out: IGROV LC50, SRB assay, 48 hours exposure; for IGROV TGI: SRB assay, 48 hours exposure
Summary of the method: as §1

IGROV-ET = test: Inhibition of cells growth by colorimetric (SRB) assay, IGROV-ET; details: for GI50 / CC50: Homo sapiens, 48 h; for GI50: read-out: IGROV-ET GI50, SRB assay, 48 hours exposure; for CC50: read-out: IGROV-ET LC50, SRB assay, 48 hours exposure; for IGROV-ET TGI: SRB assay, 48 hours exposure
Summary of the method: as §1

HeLa = test: Inhibition of cells growth by colorimetric (SRB) assay, HeLa; details: for GI50: Homo sapiens, HeLa, 48 h, read-out: HELA GI50, SRB assay, 48 hours exposure; for HELA TGI: SRB assay, 48 hours exposure
Description: (§2) The finality of these assays is to interrupt the growth of a “in vitro” tumor cell culture by means a continued exhibition of the cells to the sample to be testing.
(§3) This form of the assay employs 96 well cell culture microplates of 9 mm diameter (Faircloth, 1988; Mosmann, 1983). Most of the cell lines are obtained from American Type Culture Collection (ATCC) derived from different human cancer types.
(§4) Cells are maintained in RPMI 1640 10% FBS, supplemented with 0.1 g/l penicillin and 0.1 g/l streptomycin sulphate and then incubated at 37° C., 5% CO2 and 98% humidity. For the experiments, cells were harvested from subconfluent cultures using trypsin and resuspended in fresh medium before plating.
(§5) Cells are seeded in 96 well microtiter plates, at 5×10^3 cells per well in aliquots of 195 μl medium, and they are allowed to attach to the plate surface by growing in drug free medium for 18 hours. Afterward, samples are added in aliquots of 5 μl in a ranging from 10 to 10^−8 μg/ml, dissolved in DMSO/EtOH/PBS (0.5:0.5:99). After 48 hours exposure, the antitumor effect are measured by the SRB methodology: cells are fixed by adding 50 μl of cold 50% (wt/vol) trichloroacetic acid (TCA) and incubating for 60 minutes at 4° C. Plates are washed with deionized water and dried. One hundred μl of SRB solution (0.4% wt/vol in 1% acetic acid) is added to each microtiter well and incubated for 10 minutes at room temperature. Unbound SRB is removed by washing with 1% acetic acid. Plates are air dried and bound stain is solubilized with Tris buffer. Optical densities are read on a automated spectrophotometric plate reader at a single wavelength of 490 nm.
(§6) The values for mean +/−SD of data from triplicate wells are calculated. Some parameters for cellular responses can be calculated: GI=growth inhibition, TGI=total growth inhibition (cytostatic effect) and LC=cell killing (cytotoxic effect).

HeLa-APL = test: Inhibition of cells growth by colorimetric (SRB) assay, HeLa-APL; details: for GI50 / CC50: Homo sapiens, 48 h; for GI50: read-out: HELA-APL GI50, SRB assay, 48 hours exposure; for CC50: read-out: HELA-APL LC50, SRB assay, 48 hours exposure; for HELA-APL TGI: SRB assay, 48 hours exposure
Description: as §2, §3, §4, §5, §6

PANC-1 = test: Inhibition of cells growth by colorimetric (SRB) assay, PANC-1; details: for GI50 / CC50: Homo sapiens, PANC-1, 48 h; for GI50: read-out: PANC-1 GI50, SRB assay, 48 hours exposure; for CC50: read-out: PANC-1 LC50, SRB assay, 48 hours exposure; for PANC-1 TGI: SRB assay, 48 hours exposure
Summary of the method: as §1

[1] = Homo sapiens, A549, 48 h, read-out: A-549 GI50, SRB assay, 48 hours exposure
[2] = Homo sapiens, A549, 48 h, read-out: A-549 LC50, SRB assay, 48 hours exposure
[3] = Homo sapiens, HT-29, 48 h, read-out: HT-29 GI50, SRB assay, 48 hours exposure
[4] = Homo sapiens, HT-29, 48 h, read-out: HT-29 LC50, SRB assay, 48 hours exposure

CSc1nccc(-c2c3cc4ccccc4nc3n3c(N)nccc23)n1 [Compound 18a]
GI50 (K-562): 4.72 µM
CC50 (K-562): ≥ 27.9 µM
K-562 TGI (K-562): 1.66E−05
GI50 (A-549; [1]): 7310 nM
CC50 (A-549; [2]): ≥ 27.9 µM
A-549 TGI (A-549; SRB assay, 48 hours exposure): 1.66E−05
GI50 (SK-MEL-28): 4970 nM
CC50 (SK-MEL-28): ≥ 27.9 µM
MEL-28 TGI (SK-MEL-28): 1.20E−05
GI50 (HT-29; [3]): 4410 nM
CC50 (HT-29; [4]): ≥ 27.9 µM
HT-29 TGI (HT-29; SRB assay, 48 hours exposure): 1.67E−05
GI50 (LoVo): 5110 nM
CC50 (LoVo): 17 µM
LOVO TGI (LoVo): 9.32E−06
GI50 (LoVo-Dox): 3100 nM
CC50 (LoVo-Dox): ≥ 27.9 µM
LOVO-DOX TGI (LoVo-Dox): 9.74E−06
GI50 (DU-145): 4270 nM
CC50 (DU-145): 23.3 µM
DU-145 TGI (DU-145): 9.99E−06
GI50 (LNCaP): 3490 nM
CC50 (LNCaP): 15.3 µM
LN-caP TGI (LNCaP): 7.31E−06
GI50 (SK-BR-3): 1340 nM
CC50 (SK-BR-3): ≥ 27.9 µM
SK-BR-3 TGI (SK-BR-3): 4.94E−06
GI50 (IGROV-1): 5.47 µM
CC50 (IGROV-1): ≥ 27.9 µM
IGROV TGI (IGROV-1): 1.33E−05
GI50 (IGROV-ET): 7.06 µM
CC50 (IGROV-ET): ≥ 27.9 µM
IGROV-ET TGI (IGROV-ET): 1.53E−05
GI50 (HeLa): 44.9 nM
HELA TGI (HeLa): 3.68E−06
GI50 (HeLa-APL): 56.9 nM
CC50 (HeLa-APL): 6.56 µM
HELA-APL TGI (HeLa-APL): 8.31E−07
GI50 (PANC-1): 6.53 µM
CC50 (PANC-1): ≥ 27.9 µM
PANC-1 TGI (PANC-1): 1.46E−05

CSc1nccc(-c2c3ccc(C)nc3n3c(N)nccc23)n1 [Compound 43]
GI50 (K-562): 5.27 µM
CC50 (K-562): 21.2 µM
K-562 TGI (K-562): 1.06E−05
GI50 (A-549; [1]): 937 nM
CC50 (A-549; [2]): 31.1 µM
GI50 (A-549; Homo sapiens, A549, 48 h, read-out: GI50 A-549, SRB assay, 48 hours exposure): 2170 nM
CC50 (A-549; read-out: A-549 LC50, SRB assay, 48 hours exposure): ≥ 17.3 µM
GI50 (SK-MEL-28): 850 nM
CC50 (SK-MEL-28): 15.3 µM
MEL-28 TGI (SK-MEL-28): 3.72E−06
GI50 (HT-29; [3]): 932 nM
CC50 (HT-29; [4]): 31.1 µM
GI50 (HT-29; read-out: HT-29 GI50, SRB assay, 48 hours exposure): 1130 nM
CC50 (HT-29; read-out: HT-29 LC50, SRB assay, 48 hours exposure): ≥ 31 µM
GI50 (LoVo): 717 nM
CC50 (LoVo): ≥ 31 µM
LOVO TGI (LoVo): 2.37E−06
GI50 (LoVo-Dox): 1220 nM
CC50 (LoVo-Dox): ≥ 31 µM
LOVO-DOX TGI (LoVo-Dox): 5.24E−06
GI50 (DU-145): 1680 nM
CC50 (DU-145): 24.5 µM
DU-145 TGI (DU-145): 6.79E−06
GI50 (LNCaP): 1360 nM
CC50 (LNCaP): 12.5 µM
LN-caP TGI (LNCaP): 3.94E−06
GI50 (SK-BR-3): 1240 nM
CC50 (SK-BR-3): ≥ 31 µM
SK-BR-3 TGI (SK-BR-3): 5.27E−06
GI50 (IGROV-1): 6.64 µM
CC50 (IGROV-1): ≥ 31 µM
IGROV TGI (IGROV-1): 1.60E−05
GI50 (IGROV-ET): 3.69 µM
CC50 (IGROV-ET): ≥ 31 µM
IGROV-ET TGI (IGROV-ET): 1.87E−05
GI50 (HeLa): 23.3 nM
HELA TGI (HeLa): 2.03E−07
GI50 (HeLa-APL): 18.2 nM
CC50 (HeLa-APL): 7.88 µM
HELA-APL TGI (HeLa-APL): 1.75E−07
GI50 (PANC-1): 5.71 µM
CC50 (PANC-1): ≥ 31 µM
PANC-1 TGI (PANC-1): 1.65E−05
